According to patent US20200270309A1, “MALEIMIDE GROUP-MODIFIED ANGIOGENESIS INHIBITOR HM-1 AND USE THEREOF” (NANJING ANJI BIOLOGICAL TECHNOLOGY CO., LTD, priority 2017, published 2020):
Marks after values point to notes of the source that are not given here. Peptide text beside a SMILES is read from it. * marks the point of attachment. X64 = O=C1C=CC(=O)N1c1cccc(CCCCCCCCCC(=O)*)c1; X68 = O=C1C=CC(=O)N1c1ccccc1CCCCCCCCCCCC(=O)*; X60 = O=C1C=CC(=O)N1c1ccccc1CCCCCCCCCC(=O)*; X52 = O=C1C=CC(=O)N1c1ccccc1CCCCCCCC(=O)*; X46 = O=C1C=CC(=O)N1c1cccc(CCCCC(=O)*)c1

How the values were obtained:
splenic lymphocytes = assay: Proliferation of splenic lymphocytes in mice (ConA, MTT); assay type: cell-based; settings: ConA-stimulated mouse splenic lymphocytes, 48 h
Procedure: Spleens of mice were taken out under aseptic conditions, washed with blank 1640 culture medium 3 times, ground with a 5 mL syringe core, filtered with a 200-mesh sieve, made into a single cell suspension. The suspension was centrifuged (1000 rpm×5 min), and supernatant was removed. Red blood cells were lysed by Tris-NH4Cl, and placed in ice water bath for 4 min and centrifuged (1000 rpm×5 min). The supernatant was removed, and the cells were washed twice with sterile PBS. Finally, RPMI 1640 culture solution (5 mL) containing 10% calf serum was added to suspend the cells. The cells were counted and the cell concentration was adjusted to 5×10^6 cells/mL, and the cells were cultured in a 96-well culture plate.
Blank control group, concanavalin A (ConA) group and dexamethasone (Dex) group were set in the experiment, and polypeptide X1-X90 groups were set as test groups. After 100 μL of splenic lymphocytes suspension per well was added into each group, 100 μL of blank 1640 culture solution was added into the blank control group, ConA was added into the ConA group, Dex was added into the Dex group, and ConA was added into the test groups on the basis of adding different concentrations of polypeptides X1-X90. The cells were static cultured at 37° C. in a cell incubator for 48 h. After the cultivation was completed, 20 μL of MTT was added to each well, and the cultivation was continued for 4 h. Finally, all the solutions in each well were discarded. 100 μL DMSO was added to each well and shaken, and the OD value at 570 nm was detected with a microplate reader. Five parallel experiments were set in each well.

[1] = tested on: collagen-induced arthritis; assay: Mouse collagen-induced arthritis (CIA) animal model; assay type: in vivo; settings: DBA/1 mice CIA model, dose 4.0 mg/kg, subcutaneous from day 30, n=10; for Clinical score: highest score 16
[2] = tested on: human retinal capillary endothelial cells (HRCECs); assay: MTT proliferation inhibition on HRCECs; assay type: cell-based; settings: 48 h; for A570 nm-A630 nm: mean±SD
Procedure: An MTT method was used to detect the inhibitory activity of the angiogenesis inhibitor polypeptide on proliferation of HRCECs. HRCECs were digested and collected with trypsin after being cultured in an incubator at 37° C. with 5% CO2 to a density of 90% or more. The cells were resuspended with a culture solution and counted under a microscope, the cell concentration was adjusted to 3.0×10^4 cells/mL, and the cell suspension was inoculated into a 96-well plate at 100 μL/well, and cultured overnight in an incubator at 37° C. with 5% CO2. After the cells were completely adhered to the wall, cells with the addition of the angiogenesis inhibitor polypeptide were used as administration groups, cells with the addition of Avastin were used as a positive control group, and cells with the addition of culture solution without any drugs were used as a blank control group. The cells were diluted to respective predetermined concentrations with the culture solution. The diluent were added into 96-well plates respectively at 100 μL per well, and the cells were cultured at 37° C. for 48 h in an incubator with 5% CO2. 20 μL of 5 mg/mL MTT was added into each well of the 96-well plate, and the cultivation was continued for 4 h. The culture medium was removed, and 100 μL of DMSO was added to each well for dissolution. The absorbance was measured at a detection wavelength of 570 nm and a reference wavelength of 630 nm using a microplate reader, and the PIR was calculated by the formula as follows:
PIR (%)=1−administration group/negative group
The experiment was repeated independently three times. The results were expressed as mean±SD, and statistical T test was conducted. *P<0.05 indicates significant difference, and **P<0.01 indicates extremely significant difference.

[3] = tested on: retinal vascular endothelial nuclei; assay: Neovascularization in a rat model of premature retinopathy; assay type: in vivo, rats; settings: dose 0.05 μM in the vitreous chamber from day 7 of modeling for one week; counted on day 14; oxygen-induced neonatal rats
Procedure: Using a fluctuating oxygen-induced animal model, newborn rats born naturally on the same day (within 12 h) were randomly divide into three groups: an oxygen model group, an oxygen treatment group and a normal control group. The oxygen model was further divided into three sub-group model groups, and the sub-group model groups and the treatment group were all placed in a semi-closed oxygen chamber made of organic glass; medical oxygen was introduced into the chamber, and the concentration was adjusted to 80%±2% by an oxygen meter; nitrogen was introduced into the oxygen chamber after 24 h, and the oxygen concentration was adjusted to 10%±2% rapidly and maintained for 24 h. This was repeated to keep the oxygen concentration in the oxygen chamber alternating between 80% and 10% every 24 h, the oxygen concentration was maintained for 7 d, and then the rats were fed in the air. The oxygen concentration was monitored 8 times a day, and the ambient temperature in the chamber was controlled at 23° C.±2° C. Bedding was replaced, feed was added, and water and mother rats were replaced once. The normal control group was placed in the animal room feeding environment. […] The oxygen treatment group was divided into three subgroups. On day 7 of modeling, X1-[…], […]-[…] and […]-X90 were injected in the vitreous chamber respectively, and the oxygen model group and the control group were only given normal saline for one week. On day 14, after the rats were anesthetized by diethyl ether and killed, eyeballs were extracted and fixed in 40 g/L paraformaldehyde solution for 24 h. Gradient dehydration by alcohol was performed, and the eyeballs were processed by xylene to be transparent. After waxing, the eyeballs were sectioned continuously to a thickness of 4μm, and the periphery of the optic disc should be avoided as much as possible. The sections were parallel to the sagittal plane from cornea to the optic disc. Ten sections of each eyeball were randomly taken and stained with hematoxylin eosin, the number of vascular endothelial nuclei that broke through the inner limiting membrane of the retina (only the number of vascular endothelial nuclei closely related to the inner limiting membrane were counted) was counted, and statistics of the average number of cells per section per eyeball was performed. Results: In the control group, there were no vascular endothelial nuclei that broke through the inner limiting membrane of the retina and grew into vitreous body, or the vascular endothelial nuclei were occasionally found in only a few sections. In the model group, there were many vascular endothelial nuclei that broke through the inner limiting membrane of the retina, some appeared alone, and some appeared in clusters. At the same time, on some sections, these vascular endothelial nuclei were also found adjacent to deep retinal vessels, confirming that they originated from the retina rather than the vitreous body or other ocular tissues. In the treatment group, only a few vascular endothelial nuclei that broke through the inner limiting membrane of retina could be seen in the sections.

SMILES | A570 nm/A630 nm (splenic lymphocytes; polypeptide dose 0.05 μM) | Inhibition rate (%) (splenic lymphocytes; polypeptide dose 0.05 μM) | A570 nm/A630 nm (splenic lymphocytes; polypeptide dose 0.1 μM) | Inhibition rate (%) (splenic lymphocytes; polypeptide dose 0.1 μM) | A570 nm/A630 nm (splenic lymphocytes; polypeptide dose 0.2 μM) | Inhibition rate (%) (splenic lymphocytes; polypeptide dose 0.2 μM) | Joint swelling degree (mm) [1] | Left and right paw swelling degree (mm) [1] | Clinical score [1] | Inhibition rate (%) ([2]; dose 0.05 μM) | A570 nm-A630 nm ([2]; dose 0.05 μM) | Inhibition rate (%) ([2]; dose 0.1 μM) | A570 nm-A630 nm ([2]; dose 0.1 μM) | Inhibition rate (%) ([2]; dose 0.2 μM) | A570 nm-A630 nm ([2]; dose 0.2 μM) | Nuclei count (retinal vascular endothelial nuclei, average per section per eyeball) [3]
C[C@H](NC(=O)CNC(=O)[C@H](CCCNC(=N)N)NC(=O)CCCCCCCc1ccccc1N1C(=O)C=CC1=O)C(=O)N[C@@H](CC(=O)O)C(=O)N[C@@H](CCCNC(=N)N)C(=O)N[C@@H](C)C(=O)NCC(=O)NCC(=O)NCC(=O)NCC(=O)N[C@@H](CCCNC(=N)N)C(=O)NCC(=O)N[C@@H](CC(=O)O)C(=O)O [X19] (X52-RGADRAGGGGRGD-OH) | 0.5093 ± 0.0372 | 24.59% | 0.5027 ± 0.0814 | 25.57% | 0.4978 ± 0.0481 | 26.30% | 0.84 ± 0.18 mm | 0.82 ± 0.14 mm | 8.72 ± 1.41 | 51.03%* | 0.6472 ± 0.01829 | 63.29%** | 0.4852 ± 0.07133 | 64.71%* | 0.4664 ± 0.01886 | 7.236 ± 1.218
C[C@H](NC(=O)CNC(=O)[C@H](CCCNC(=N)N)NC(=O)CCCCCCCCCc1ccccc1N1C(=O)C=CC1=O)C(=O)N[C@@H](CC(=O)O)C(=O)N[C@@H](CCCNC(=N)N)C(=O)N[C@@H](C)C(=O)NCC(=O)NCC(=O)NCC(=O)NCC(=O)N[C@@H](CCCNC(=N)N)C(=O)NCC(=O)N[C@@H](CC(=O)O)C(=O)O [X21] (X60-RGADRAGGGGRGD-OH) | 0.5904 ± 0.0399 | 12.59% | 0.5776 ± 0.1193 | 14.48% | 0.4947 ± 0.1055 | 26.75% | 0.81 ± 0.14 mm | 0.83 ± 0.16 mm | 8.79 ± 1.43 | 48.85%* | 0.6761 ± 0.01737 | 67.15%** | 0.4342 ± 0.04189 | 69.16%* | 0.4076 ± 0.06848 | 7.222 ± 3.567
C[C@H](NC(=O)CNC(=O)[C@H](CCCNC(=N)N)NC(=O)CCCCCCCCCCCc1ccccc1N1C(=O)C=CC1=O)C(=O)N[C@@H](CC(=O)O)C(=O)N[C@@H](CCCNC(=N)N)C(=O)N[C@@H](C)C(=O)NCC(=O)NCC(=O)NCC(=O)NCC(=O)N[C@@H](CCCNC(=N)N)C(=O)NCC(=O)N[C@@H](CC(=O)O)C(=O)O [X23] (X68-RGADRAGGGGRGD-OH) | 0.5946 ± 0.0378 | 11.96% | 0.4982 ± 0.1212 | 26.24% | 0.4363 ± 0.0933 | 35.40% | 0.77 ± 0.17 mm | 0.77 ± 0.15 mm | 9.15 ± 1.47 | 45.59%* | 0.7191 ± 0.07483 | 46.74%** | 0.7043 ± 0.07872 | 48.91%* | 0.6753 ± 0.00095 | 8.275 ± 1.713
C[C@H](NC(=O)CNC(=O)[C@H](CCCNC(=N)N)NC(=O)CCCCc1cccc(N2C(=O)C=CC2=O)c1)C(=O)N[C@@H](CC(=O)O)C(=O)N[C@@H](CCCNC(=N)N)C(=O)N[C@@H](C)C(=O)NCC(=O)NCC(=O)NCC(=O)NCC(=O)N[C@@H](CCCNC(=N)N)C(=O)NCC(=O)N[C@@H](CC(=O)O)C(=O)O [X28] (X46-RGADRAGGGGRGD-OH) | 0.5765 ± 0.0594 | 14.64% | 0.5541 ± 0.0486 | 17.96% | 0.5087 ± 0.0793 | 24.68% | 0.72 ± 0.18 mm | 0.73 ± 0.18 mm | 8.83 ± 1.26 | 48.58%* | 0.6796 ± 0.03488 | 52.72%** | 0.6249 ± 0.09489 | 69.71%* | 0.4004 ± 0.02963 | 9.261 ± 3.879
C[C@H](NC(=O)CNC(=O)[C@H](CCCNC(=N)N)NC(=O)CCCCCCCCCc1cccc(N2C(=O)C=CC2=O)c1)C(=O)N[C@@H](CC(=O)O)C(=O)N[C@@H](CCCNC(=N)N)C(=O)N[C@@H](C)C(=O)NCC(=O)NCC(=O)NCC(=O)NCC(=O)N[C@@H](CCCNC(=N)N)C(=O)NCC(=O)N[C@@H](CC(=O)O)C(=O)O [X33] (X64-RGADRAGGGGRGD-OH) | 0.5669 ± 0.1137 | 16.06% | 0.5297 ± 0.0479 | 21.57% | 0.4492 ± 0.1069 | 33.49% | 0.82 ± 0.11 mm | 0.74 ± 0.17 mm | 9.08 ± 1.25 | 42.66%* | 0.7579 ± 0.03744 | 46.86%** | 0.7024 ± 0.04477 | 62.24%* | 0.4991 ± 0.04854 | 7.654 ± 1.142
